# Measured values published in PMC4897788, “Design, biological evaluation and 3D QSAR studies of novel dioxin-containing pyrazoline derivatives with thiourea skeleton as selective HER-2 inhibitors” (Scientific Reports, 2016).
# What was measured:
# VEGFR-2 = target: T1, VEGFR-2 (Homo sapiens, UniProt P35968); assay: VEGFR-2 inhibitory assay; type: biochemical
# T1 construct: either the phosphorylated or nonphosphorylated form of the VEGFR-2 kinase domain
# Experimental: In a 96-well plate, 5 nM/L of either the phosphorylated or nonphosphorylated form of the VEGFR-2 kinase domain was incubated with selected compounds (10-point titration ranging from 4 μM to 0.1 μM), 1 μM/L gastrin substrate, 20 mM/L Tris-HCl, pH 7.5, 10 mM/L MgCl2, 100 mM/L NaCl, 1.5 mM/L EGTA, 1 mM/L DTT, 0.2 mM/L sodium orthovanadate, and 20 μg/mL BSA for 30 min at 25 °C. ATP was added at a final concentration of 11.8 μM and incubated for 60 min at room temperature. Eu-labeled antiphosphotyrosine pT66 antibody (Perkin- Elmer) was then used for detection. The fluorescence at 665 nM was measured with a Wallac Victor plate reader using a time delay of 50 μs. The experiment was performed for three independent times and in triplicate each time.
# p-EGFR = assay: Western blot p-EGFR in MDA-MB-453; type: cell-based, human; details: increasing C20 levels
# Experimental: After incubation with compound, cells were harvested and washed with PBS, then lysed in lysis buffer (30 mm Tris, pH 7.5, 150 mm NaCl, 1 mm phenylmethylsulfonyl fluoride, 1 mm Na3VO4, 1% Nonidet P-40, 10% glycerol, and phosphatase and protease inhibitors). After centrifugation at 12,000 g for 5 min, the supernatant was collected as total protein. The concentration of the protein was determined by a BCATM protein assay kit (Pierce, Rockford, IL, USA). The protein samples were separated by 10% SDS–PAGE and subsequently electrotransferred onto a polyvinylidene difluoride membrane (Millipore, Bedford, MA, USA). The membrane was blocked with 5% non-fat milk for 2 h at room temperature. The blocked membrane was probed with the indicated primary antibodies overnight at 4 °C, and then incubated with a horse radish peroxidase (HRP)-coupled secondary antibody.
# [1] = tested on: MCF-7 human breast cancer cell line; assay: Anti-proliferation assay (MTT), MCF-7; type: cell-based; details: MCF7, 24 h
# Experimental: MCF-7 human breast cancer cells was cultured in DMEM/10% fetal bovine serum, in 5% CO2 water saturated atmosphere at 37 °C. MDA-MB-453 human breast cancer cells was cultured in L-15 medium in 100% air at 37 °C. Cell suspensions (10000/mL) were prepared and 100 μL/well dispensed into 96-well plates (Costar) giving 1000 cells/well. The plates were returned to the incubator for 24 h to allow the cells to reattach. These compounds were initially prepared at 20 mM in DMSO. Aliquots (200 μL) were diluted into 20 mL culture medium giving 200 μM, and 10 serial dilutions of 3× prepared. Aliquots (100 μL) of each dilution were added to the wells, giving doses ranging from 100 μM to 0.005 μM. After a further incubated at 37 °C for 24 h in a humidified atmosphere with 5% CO2, the cell viability was assessed by the conventional 3-(4,5-dimethylthiazol-2-yl)-2,5-diphenyltetrazolium bromide (MTT) reduction assay and carried out strictly according to the manufacturer instructions (Sigma). The absorbance at 590 nm was recorded using LX300 Epson Diagnostic micro-plate reader. Then GI50 was calculated using SPSS 13.0 software.
# EGFR = EGFR (Homo sapiens, UniProt P00533); assay: EGFR autophosphorylation kinase assay (DELFIA/time-resolved fluorometry)
# Chain of EGFR (P00533 669-1210): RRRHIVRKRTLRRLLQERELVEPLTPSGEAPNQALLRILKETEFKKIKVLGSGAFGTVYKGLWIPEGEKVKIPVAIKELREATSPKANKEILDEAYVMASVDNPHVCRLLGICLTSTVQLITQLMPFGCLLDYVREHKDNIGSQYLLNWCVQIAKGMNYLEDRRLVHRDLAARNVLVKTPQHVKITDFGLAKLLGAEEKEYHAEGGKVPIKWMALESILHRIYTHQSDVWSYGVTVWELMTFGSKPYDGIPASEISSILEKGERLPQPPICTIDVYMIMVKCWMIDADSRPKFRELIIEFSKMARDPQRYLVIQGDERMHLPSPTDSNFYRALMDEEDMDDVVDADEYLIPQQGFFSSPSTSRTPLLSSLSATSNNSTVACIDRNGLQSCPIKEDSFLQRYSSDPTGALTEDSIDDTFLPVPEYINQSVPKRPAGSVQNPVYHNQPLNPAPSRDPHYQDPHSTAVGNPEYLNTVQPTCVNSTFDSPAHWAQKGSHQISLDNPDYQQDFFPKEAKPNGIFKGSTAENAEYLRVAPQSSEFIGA
# Experimental: Both EGFR and HER-2 kinase assays were set up to assess the level of autophosphorylation based on DELFIA/Time-Resolved Fluorometry. […] Then, 10 μL of 5× buffer (containing 20 mM HEPES, 2 mM MnCl2, 100 μM Na3VO4, and 1 mM DTT) and 20 μL of 0.1 mM ATP-50 mM MgCl2 was added for 1 h. Positive and negative controls were included in each plate by incubation of enzyme with or without ATP-MgCl2. At the end of incubation, liquid was aspirated and plates were washed three times with wash buffer. A 75 μL (400 ng) sample of europium-labeled anti-phosphotyrosine antibody was added to each well for another 1 h of incubation. […] The IC50 was obtained from curves of percentage inhibition with eight concentrations of compound. As the contaminants in the enzyme preparation are fairly low, the majority of the signal detected by the anti-phosphotyrosine antibody is from EGFR or HER-2. The experiment was performed for three independent times and in triplicate each time.
# HER-3 = target: T2, HER-3 (Homo sapiens, UniProt P21860); assay: HER-3 inhibitory assay; type: biochemical
# T2 construct: HER-3 cytoplasmic domain (HER-3-CD, amino acids 665–1339); His6 (N); made in house
# T2 sequence (P21860 665-1339): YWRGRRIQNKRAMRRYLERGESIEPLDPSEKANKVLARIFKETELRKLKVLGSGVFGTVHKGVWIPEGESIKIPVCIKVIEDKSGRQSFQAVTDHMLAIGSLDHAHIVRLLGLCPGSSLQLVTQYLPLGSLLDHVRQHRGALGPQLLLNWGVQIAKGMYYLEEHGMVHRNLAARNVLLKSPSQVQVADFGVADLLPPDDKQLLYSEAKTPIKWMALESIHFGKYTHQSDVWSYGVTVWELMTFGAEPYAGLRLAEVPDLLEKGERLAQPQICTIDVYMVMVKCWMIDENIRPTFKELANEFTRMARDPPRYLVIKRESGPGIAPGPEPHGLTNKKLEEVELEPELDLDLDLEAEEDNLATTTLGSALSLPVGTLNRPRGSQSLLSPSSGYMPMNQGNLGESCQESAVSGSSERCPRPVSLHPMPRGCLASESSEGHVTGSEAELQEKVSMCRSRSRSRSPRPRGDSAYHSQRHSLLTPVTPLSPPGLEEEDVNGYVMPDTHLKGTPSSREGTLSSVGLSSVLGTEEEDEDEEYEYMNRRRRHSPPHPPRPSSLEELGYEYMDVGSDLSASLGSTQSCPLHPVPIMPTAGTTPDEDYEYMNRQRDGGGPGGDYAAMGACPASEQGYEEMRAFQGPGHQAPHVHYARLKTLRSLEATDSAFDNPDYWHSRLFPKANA
# Experimental: A sequence that encodes (His)6 was located at the 5′ upstream to the HER-2 and EGFR sequences. Sf-9 cells were infected for 3 days for protein expression. Sf-9 cell pellets were solubilized at 0 °C in a buffer at pH 7.4 containing 50 mM HEPES, 10 mM NaCl, 1% Triton, 10 μM ammonium molybdate, 100 μM sodium vanadate, 10 μg/mL aprotinin, 10 μg/mL leupeptin, 10 μg/mL pepstatin, and 16 μg/mL benzamidine, HCl for 20 min followed by 20 min centrifugation. Crude extract supernatant was passed through an equilibrated Ni–NTA superflow packed column and washed with 10 mM and then 100 mM imidazole to remove nonspecifically bound material. Histidine-tagged proteins were eluted with 250 and 500 mM imidazole and dialyzed against 50 mM NaCl, 20 mM HEPES, 10% glycerol and 1 μg/mL each of aprotinin, leupeptin, and pepstatin for 2 h. The entire purification procedure was performed at 4 °C or on ice.
# A 1.8 Kb cDNA encoded for human HER-3 cytoplasmic domain (HER-3-CD, amino acids 665–1339) was applied to perform the experiment using the same method as EGFR/HER-2.
# [2] = target: HER-2 protein (truncated) (Homo sapiens, UniProt P04626); assay: BLI assay (bio-layer interferometry); type: binding; details: labeled compound, calculated by the Octet Red96 system
# Chain of HER-2 protein (truncated) (P04626 676-1245): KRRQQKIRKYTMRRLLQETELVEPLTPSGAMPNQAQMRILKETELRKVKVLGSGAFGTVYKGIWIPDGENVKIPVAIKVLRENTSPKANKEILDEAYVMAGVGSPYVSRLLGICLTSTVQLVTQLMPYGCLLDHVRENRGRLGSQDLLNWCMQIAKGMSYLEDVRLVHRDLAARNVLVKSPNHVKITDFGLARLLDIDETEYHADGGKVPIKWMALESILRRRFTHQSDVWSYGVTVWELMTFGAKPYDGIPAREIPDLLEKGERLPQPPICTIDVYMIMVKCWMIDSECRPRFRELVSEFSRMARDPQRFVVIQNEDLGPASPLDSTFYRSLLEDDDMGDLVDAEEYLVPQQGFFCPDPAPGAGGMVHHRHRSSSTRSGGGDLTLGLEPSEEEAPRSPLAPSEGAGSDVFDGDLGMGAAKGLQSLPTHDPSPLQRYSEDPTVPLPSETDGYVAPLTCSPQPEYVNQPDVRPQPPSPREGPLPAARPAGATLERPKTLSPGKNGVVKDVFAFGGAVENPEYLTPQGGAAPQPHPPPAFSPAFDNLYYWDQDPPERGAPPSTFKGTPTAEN
# Experimental: Bio-layer interferometry (BLI). Binding of compounds (labeled; 0.01, 0.05, 0.1, 0.5 μM) to the HER-2 protein (truncated) was measured and analyzed on an Octet Red96 instrument (ForteBio) at room temperature. The buffer-equilibrated streptavidin biosensors were loaded with 100 μg/mL protein. A duplicate set of sensors was incubated in the buffer without protein for a background binding control. The assay was performed in black 96-well plates (Thermo Fisher Scientific) with the total working volume of 0.21 mL per well. The signal was analyzed using a double reference subtraction protocol to subtract the non-specific binding, background, and signal drift caused by sensor variability. The binding event was quantified by the shift of interference pattern of the light. The result was shown in Fig. 7 and the KD was calculated by the Octet Red96 instrument.
# T1 sequence (P35968 834-1162 limits assumed, species assumed): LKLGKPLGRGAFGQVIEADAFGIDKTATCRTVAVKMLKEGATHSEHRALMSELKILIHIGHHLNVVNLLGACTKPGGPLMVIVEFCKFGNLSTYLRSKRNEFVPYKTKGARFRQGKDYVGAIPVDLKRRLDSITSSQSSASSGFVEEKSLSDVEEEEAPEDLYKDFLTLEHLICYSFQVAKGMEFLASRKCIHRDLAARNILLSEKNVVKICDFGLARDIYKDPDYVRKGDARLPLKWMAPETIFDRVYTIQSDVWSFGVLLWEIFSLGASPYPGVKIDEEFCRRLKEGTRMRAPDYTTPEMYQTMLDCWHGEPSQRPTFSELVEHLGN
compound,measurement,setting,value
"COc1ccc(C2CC(c3ccc4c(c3)OCCO4)=NN2C(N)=S)cc1OC (stereo not drawn) [Compound C20, 3-(2,3-dihydrobenzo[b][1,4]dioxin-6-yl)-5-(3,4-dimethoxyphenyl)-4,5-dihydro-1H-pyrazole-1-carbothioamide]",IC50,VEGFR-2,18.4 ± 1.74 µM
same,p-EGFR levels,p-EGFR,unconspicuous
same,GI50,[1],11.9 ± 1.06 µM
same,IC50,EGFR,28.6 ± 2.52 µM
same,IC50,HER-3,5.2 ± 0.46 µM
same,Kd,[2],0.187 µM
